{"source": "paper PMC5218480", "about": "(PLoS ONE, 2017)", "system": "MV-4-11 cells", "assay": "Gene expression microarray analysis (Affymetrix PrimeView) and GSEA", "assay_type": "cell-based, human", "set-up": "RFU PODN (11730768_x_at) / Fold change /veh PODN (11730768_x_at) / RFU LINC00158 (11744669_a_at) / Fold change /veh LINC00158 (11744669_a_at) / RFU DUSP10 (11751237_a_at) / Fold change /veh DUSP10 (11751237_a_at) / RFU ID3 (11757404_x_at) / Fold change /veh ID3 (11757404_x_at) / RFU PLEKHG5 (11737974_s_at) / Fold change /veh PLEKHG5 (11737974_s_at) / RFU LRRC4B (11730491_at) / Fold change /veh LRRC4B (11730491_at) / RFU GIMAP4 (11747438_a_at) / Fold change /veh GIMAP4 (11747438_a_at) / RFU KRT8 (11758183_x_at) / Fold change /veh KRT8 (11758183_x_at) / RFU CNN1 (11734310_a_at) / Fold change /veh CNN1 (11734310_a_at) / RFU VPS37D (11726825_at) / Fold change /veh VPS37D (11726825_at) / RFU C10orf10 (11716522_x_at) / Fold change /veh C10orf10 (11716522_x_at) / RFU KIR2DL2 /// KIR2DL4 /// KIR2DL5A /// KIR2DL5B /// KIR2DS1 /// KIR2DS2 /// KIR2DS3 /// KIR2DS4 /// KIR3DL3 /// KIR3DL3 /// KIR3DS1 (11738374_at) / Fold change /veh KIR2DL2 /// KIR2DL4 /// KIR2DL5A /// KIR2DL5B /// KIR2DS1 /// KIR2DS2 /// KIR2DS3 /// KIR2DS4 /// KIR3DL3 /// KIR3DL3 /// KIR3DS1 (11738374_at) / RFU C1QL1 (11718748_at) / Fold change /veh C1QL1 (11718748_at) / RFU TMPRSS4 (11747572_a_at) / Fold change /veh TMPRSS4 (11747572_a_at) / RFU HAMP (11756126_x_at) / Fold change /veh HAMP (11756126_x_at) / RFU RNFT2 (11725882_a_at) / Fold change /veh RNFT2 (11725882_a_at) / RFU NR4A2 (11747474_a_at) / Fold change /veh NR4A2 (11747474_a_at) / RFU ABCC12 (11746883_a_at) / Fold change /veh ABCC12 (11746883_a_at) / RFU TMEM136 (11760407_x_at) / Fold change /veh TMEM136 (11760407_x_at) / RFU CLDN22 /// WWC2 (11732394_at) / Fold change /veh CLDN22 /// WWC2 (11732394_at) / RFU HLA-DPB1 (11760878_x_at) / Fold change /veh HLA-DPB1 (11760878_x_at) / RFU SPINT1 (11716480_a_at) / Fold change /veh SPINT1 (11716480_a_at) / RFU GAP43 (11754022_s_at) / Fold change /veh GAP43 (11754022_s_at) / RFU A4GNT (11735810_at) / Fold change /veh A4GNT (11735810_at) / RFU PRB3 (11715151_x_at) / Fold change /veh PRB3 (11715151_x_at) / RFU TUBB4B (11761932_at) / Fold change /veh TUBB4B (11761932_at) / RFU CAPN14 (11732068_a_at) / Fold change /veh CAPN14 (11732068_a_at) / RFU TMCC2 (11721928_a_at) / Fold change /veh TMCC2 (11721928_a_at) / RFU IRGQ (11745062_a_at) / Fold change /veh IRGQ (11745062_a_at) / RFU FAM174B (11720279_a_at) / Fold change /veh FAM174B (11720279_a_at) / RFU TMPRSS4 (11748680_a_at) / Fold change /veh TMPRSS4 (11748680_a_at) / RFU FAM212B (11763350_a_at) / Fold change /veh FAM212B (11763350_a_at) / RFU PLEKHG5 (11743358_a_at) / Fold change /veh PLEKHG5 (11743358_a_at) / RFU ZSCAN30 (11745921_a_at) / Fold change /veh ZSCAN30 (11745921_a_at) / RFU CMKLR1 (11741424_a_at) / Fold change /veh CMKLR1 (11741424_a_at) / RFU LOC101060620 /// MAPK8IP1 (11723275_at) / Fold change /veh LOC101060620 /// MAPK8IP1 (11723275_at) / RFU SPTSSB (11747773_x_at) / Fold change /veh SPTSSB (11747773_x_at) / RFU PRSS12 (11739890_at) / Fold change /veh PRSS12 (11739890_at) / RFU BIN1 (11741810_x_at) / Fold change /veh BIN1 (11741810_x_at) / RFU WNT11 (11732464_a_at) / Fold change /veh WNT11 (11732464_a_at) / RFU C10orf10 (11716521_a_at) / Fold change /veh C10orf10 (11716521_a_at) / RFU C5orf56 (11738089_at) / Fold change /veh C5orf56 (11738089_at) / RFU CYB561 (11721691_x_at) / Fold change /veh CYB561 (11721691_x_at) / RFU ANKRD19P (11752326_a_at) / Fold change /veh ANKRD19P (11752326_a_at) / RFU OR2T12 /// OR2T33 /// OR2T8 (11738714_s_at) / Fold change /veh OR2T12 /// OR2T33 /// OR2T8 (11738714_s_at) / RFU VCAN (11748164_a_at) / Fold change /veh VCAN (11748164_a_at) / RFU JSRP1 (11732532_at) / Fold change /veh JSRP1 (11732532_at) / RFU KRTAP10-11 (11738290_x_at) / Fold change /veh KRTAP10-11 (11738290_x_at) / RFU MYO3A (11730013_a_at) / Fold change /veh MYO3A (11730013_a_at) / RFU EBF3 (11725865_a_at) / Fold change /veh EBF3 (11725865_a_at) / RFU CAMK2N1 (11719241_x_at) / Fold change /veh CAMK2N1 (11719241_x_at) / RFU C5orf56 (11738088_a_at) / Fold change /veh C5orf56 (11738088_a_at) / RFU OLFML3 (11715873_a_at) / Fold change /veh OLFML3 (11715873_a_at) / RFU LOC100653217 /// NTM (11731650_a_at) / Fold change /veh LOC100653217 /// NTM (11731650_a_at) / RFU MAPK11 (11762145_a_at) / Fold change /veh MAPK11 (11762145_a_at) / RFU FIZ1 (11724087_x_at) / Fold change /veh FIZ1 (11724087_x_at) / RFU OASL (11726364_x_at) / Fold change /veh OASL (11726364_x_at) / RFU SOX15 (11748057_x_at) / Fold change /veh SOX15 (11748057_x_at) / RFU CD79A (11719716_a_at) / Fold change /veh CD79A (11719716_a_at) / RFU HIST1H1D (11736915_at) / Fold change /veh HIST1H1D (11736915_at) / RFU CASKIN2 (11723855_a_at) / Fold change /veh CASKIN2 (11723855_a_at) / RFU LOC730098 (11760151_x_at) / Fold change /veh LOC730098 (11760151_x_at) / RFU OR4N2 (11742367_at) / Fold change /veh OR4N2 (11742367_at) / RFU PRRT2 (11749266_a_at) / Fold change /veh PRRT2 (11749266_a_at) / RFU SNX32 (11753110_a_at) / Fold change /veh SNX32 (11753110_a_at) / RFU CDHR5 (11726645_a_at) / Fold change /veh CDHR5 (11726645_a_at) / RFU RCAN1 (11760418_a_at) / Fold change /veh RCAN1 (11760418_a_at) / RFU FAM167A (11723789_a_at) / Fold change /veh FAM167A (11723789_a_at) / RFU FAM26E (11764081_at) / Fold change /veh FAM26E (11764081_at) / RFU ISYNA1 (11749810_s_at) / Fold change /veh ISYNA1 (11749810_s_at) / RFU ACY1 (11761880_at) / Fold change /veh ACY1 (11761880_at) / RFU 11764098_at / Fold change /veh 11764098_at / RFU SAMD14 (11745864_x_at) / Fold change /veh SAMD14 (11745864_x_at) / RFU NPB (11741838_a_at) / Fold change /veh NPB (11741838_a_at) / RFU TMPRSS6 (11731388_a_at) / Fold change /veh TMPRSS6 (11731388_a_at) / RFU KRTAP10-2 (11738614_at) / Fold change /veh KRTAP10-2 (11738614_at) / RFU ARHGAP8 /// PRR5-ARHGAP8 (11727945_x_at) / Fold change /veh ARHGAP8 /// PRR5-ARHGAP8 (11727945_x_at) / RFU KRTAP5-7 /// NADSYN1 (11734609_at) / Fold change /veh KRTAP5-7 /// NADSYN1 (11734609_at) / RFU RASL12 (11751679_a_at) / Fold change /veh RASL12 (11751679_a_at) / RFU CDKN2B (11736163_a_at) / Fold change /veh CDKN2B (11736163_a_at) / RFU PRF1 (11729649_at) / Fold change /veh PRF1 (11729649_at) / RFU, ZNF638 /// ZNF638-IT1 / Fold change vs veh, ZNF638 /// ZNF638-IT1 / RFU, PANK3 / Fold change vs veh, PANK3 / RFU, SH3YL1 / Fold change vs veh, SH3YL1 / RFU, ZEB2 / Fold change vs veh, ZEB2 / RFU, NRIP1 / Fold change vs veh, NRIP1 / RFU, PTTG1IP / Fold change vs veh, PTTG1IP / RFU, CAPN2 / Fold change vs veh, CAPN2 / RFU, MED14 / Fold change vs veh, MED14 / RFU, SNORA58 / Fold change vs veh, SNORA58 / RFU, C1orf63 / Fold change vs veh, C1orf63 / RFU, LRRFIP1 / Fold change vs veh, LRRFIP1 / RFU, NDUFAF7 / Fold change vs veh, NDUFAF7 / RFU, SLC12A2 / Fold change vs veh, SLC12A2 / RFU, IBTK / Fold change vs veh, IBTK / RFU, ESF1 / Fold change vs veh, ESF1 / Fold change vs veh, TMEM50B / RFU, TAOK1 / Fold change vs veh, TAOK1 / RFU, ACBD3 / Fold change vs veh, ACBD3 / RFU, TMA16 / Fold change vs veh, TMA16 / RFU, RWDD3 / Fold change vs veh, RWDD3 / RFU, BCAT1 / Fold change vs veh, BCAT1 / RFU, EDEM3 / Fold change vs veh, EDEM3 / RFU, TMEM33 / Fold change vs veh, TMEM33 / RFU, WDR75 / Fold change vs veh, WDR75 / RFU, AHCTF1 / Fold change vs veh, AHCTF1 / RFU, TFRC / Fold change vs veh, TFRC / RFU, ZDHHC17 / Fold change vs veh, ZDHHC17 / RFU, NOM1 / Fold change vs veh, NOM1 / RFU, ARL8B / Fold change vs veh, ARL8B / RFU, ZBTB11 / Fold change vs veh, ZBTB11 / RFU, TAMM41 / Fold change vs veh, TAMM41 / RFU, KIAA1704 /// LOC100996395 / Fold change vs veh, KIAA1704 /// LOC100996395 / RFU, ING1 / Fold change vs veh, ING1 / RFU, TRMT61B / Fold change vs veh, TRMT61B / RFU, FUBP3 / Fold change vs veh, FUBP3 / RFU, TP53 / Fold change vs veh, TP53 / RFU, TNKS2 / Fold change vs veh, TNKS2 / RFU, ZFP14 / Fold change vs veh, ZFP14 / RFU, ACTR2 / Fold change vs veh, ACTR2 / RFU, PPP3R1 / Fold change vs veh, PPP3R1 / RFU, PIK3R1 / Fold change vs veh, PIK3R1 / RFU, HNRNPA1 / Fold change vs veh, HNRNPA1 / RFU, RNF170 / Fold change vs veh, RNF170 / RFU, ZNF28 / Fold change vs veh, ZNF28 / RFU, RNGTT / Fold change vs veh, RNGTT / RFU, OGT / Fold change vs veh, OGT / RFU, BRD1 / Fold change vs veh, BRD1 / RFU, MARS / Fold change vs veh, MARS / RFU, ZNF655 / Fold change vs veh, ZNF655 / RFU, FAHD1 / Fold change vs veh, FAHD1 / RFU, BDP1 / Fold change vs veh, BDP1 / RFU, LRRCC1 / Fold change vs veh, LRRCC1 / RFU, ARID1A / Fold change vs veh, ARID1A / RFU, ZNF146 / Fold change vs veh, ZNF146 / RFU, ZNF330 / Fold change vs veh, ZNF330 / RFU, GPN3 / Fold change vs veh, GPN3 / RFU, C9orf123 / Fold change vs veh, C9orf123 / RFU, N4BP2L2 / Fold change vs veh, N4BP2L2 / RFU, ARFIP1 / Fold change vs veh, ARFIP1 / RFU, FAM179B / Fold change vs veh, FAM179B / RFU, BCL10 / Fold change vs veh, BCL10 / RFU, UHRF1BP1L / Fold change vs veh, UHRF1BP1L / RFU, BET1 / Fold change vs veh, BET1 / RFU, CNOT2 / Fold change vs veh, CNOT2 / RFU, ZNF268 / Fold change vs veh, ZNF268 / Fold change vs veh, ZNF507 / RFU, DGCR2 / Fold change vs veh, DGCR2 / RFU, WDSUB1 / Fold change vs veh, WDSUB1 / Fold change vs veh, HSP90B1 /// MIR3652 / RFU, ADSS / Fold change vs veh, ADSS / RFU, GK / Fold change vs veh, GK / RFU, ZNF148 / Fold change vs veh, ZNF148 / RFU, TAF9 / Fold change vs veh, TAF9 / RFU, SLC1A5 / Fold change vs veh, SLC1A5 / RFU, SLMO2 / Fold change vs veh, SLMO2 / RFU, ABCC4 / Fold change vs veh, ABCC4 / RFU, LOC101060439 /// RAP1B / Fold change vs veh, LOC101060439 /// RAP1B / RFU, RFX7 / Fold change vs veh, RFX7 / RFU, GTPBP10 / Fold change vs veh, GTPBP10 / RFU, CNEP1R1 / Fold change vs veh, CNEP1R1 / RFU, BIVM-ERCC5 /// ERCC5 / Fold change vs veh, BIVM-ERCC5 /// ERCC5 / RFU, ILF3 / Fold change vs veh, ILF3 / RFU 11762660_at / Fold change /veh 11762660_at / RFU VCAN (11757783_s_at) / Fold change /veh VCAN (11757783_s_at) / RFU DDX43 (11728927_at) / Fold change /veh DDX43 (11728927_at) / RFU KRT8 (11758188_x_at) / Fold change /veh KRT8 (11758188_x_at) / RFU NKD1 (11759106_at) / Fold change /veh NKD1 (11759106_at) / RFU SRD5A1 (11742802_a_at) / Fold change /veh SRD5A1 (11742802_a_at) / RFU TPSAB1 /// TPSB2 (11721975_s_at) / Fold change /veh TPSAB1 /// TPSB2 (11721975_s_at) / RFU GSTM3 (11746129_a_at) / Fold change /veh GSTM3 (11746129_a_at) / RFU IL23R (11737362_x_at) / Fold change /veh IL23R (11737362_x_at) / RFU TMEM51 (11727254_a_at) / Fold change /veh TMEM51 (11727254_a_at) / RFU PIWIL2 (11732686_x_at) / Fold change /veh PIWIL2 (11732686_x_at) / RFU ORM1 (11744905_x_at) / Fold change /veh ORM1 (11744905_x_at) / RFU CCDC152 (11743942_at) / Fold change /veh CCDC152 (11743942_at) / RFU ECM1 (11717891_a_at) / Fold change /veh ECM1 (11717891_a_at) / RFU IL23R (11748794_a_at) / Fold change /veh IL23R (11748794_a_at) / RFU TNFAIP8L3 (11732012_x_at) / Fold change /veh TNFAIP8L3 (11732012_x_at) / RFU MBOAT4 (11741988_at) / Fold change /veh MBOAT4 (11741988_at) / RFU 11764193_at / Fold change /veh 11764193_at / RFU TMEM53 (11763286_at) / Fold change /veh TMEM53 (11763286_at) / RFU MAGEB2 (11727129_at) / Fold change /veh MAGEB2 (11727129_at) / RFU TMEM200A (11744735_a_at) / Fold change /veh TMEM200A (11744735_a_at) / RFU CCDC152 (11751479_a_at) / Fold change /veh CCDC152 (11751479_a_at) / RFU FAM211A (11726209_a_at) / Fold change /veh FAM211A (11726209_a_at) / RFU RGS16 (11746705_a_at) / Fold change /veh RGS16 (11746705_a_at) / RFU VCAN (11755009_s_at) / Fold change /veh VCAN (11755009_s_at) / RFU RHOB (11743442_s_at) / Fold change /veh RHOB (11743442_s_at) / RFU RGS16 (11720943_a_at) / Fold change /veh RGS16 (11720943_a_at) / RFU RGS16 (11720944_at) / Fold change /veh RGS16 (11720944_at) / RFU, VPS4B / Fold change vs veh, VPS4B / RFU, CREB1 / Fold change vs veh, CREB1 / RFU, DNAJC13 / Fold change vs veh, DNAJC13 / RFU, GNAQ / Fold change vs veh, GNAQ / RFU, CDK5R1 / Fold change vs veh, CDK5R1 / RFU, ZRANB3 / Fold change vs veh, ZRANB3 / RFU, CUL4A / Fold change vs veh, CUL4A / RFU, CCNY / Fold change vs veh, CCNY / RFU, UFL1 / Fold change vs veh, UFL1 / RFU, COG3 / Fold change vs veh, COG3 / RFU, DIAPH2 / Fold change vs veh, DIAPH2 / RFU, SKA2 / Fold change vs veh, SKA2 / RFU, AFF3 / Fold change vs veh, AFF3 / RFU, LMF1 / Fold change vs veh, LMF1 / RFU, IPO11 / Fold change vs veh, IPO11 / RFU, DFFB / Fold change vs veh, DFFB / RFU, FOXP1 / Fold change vs veh, FOXP1 / RFU, CARD8 / Fold change vs veh, CARD8 / RFU, STRN3 / Fold change vs veh, STRN3 / RFU, ADK / Fold change vs veh, ADK / RFU, RASSF2 / Fold change vs veh, RASSF2 / RFU, WIPF1 / Fold change vs veh, WIPF1 / RFU, LARP1B / Fold change vs veh, LARP1B / RFU, RASA1 / Fold change vs veh, RASA1 / RFU, RB1 / Fold change vs veh, RB1 / RFU, PPFIA1 / Fold change vs veh, PPFIA1 / RFU, MAT2A / Fold change vs veh, MAT2A / RFU, CCT5 / Fold change vs veh, CCT5 / RFU, WDR92 / Fold change vs veh, WDR92 / RFU, CUX1 / Fold change vs veh, CUX1 / RFU, TTC7A / Fold change vs veh, TTC7A / RFU, TMEM135 / Fold change vs veh, TMEM135 / RFU, DEPTOR / Fold change vs veh, DEPTOR / RFU, CPM / Fold change vs veh, CPM / RFU, DNAJB6 / Fold change vs veh, DNAJB6 / RFU, CACNA2D3 / Fold change vs veh, CACNA2D3 / RFU, DTX4 / Fold change vs veh, DTX4 / RFU, TFCP2 / Fold change vs veh, TFCP2 / RFU, GMCL1 /// GMCL1P1 / Fold change vs veh, GMCL1 /// GMCL1P1 / RFU, AEBP2 / Fold change vs veh, AEBP2 / RFU, SNHG1 /// SNORD22 /// SNORD25 /// SNORD26 /// SNORD27 /// SNORD28 /// SNORD29 /// SNORD31 / Fold change vs veh, SNHG1 /// SNORD22 /// SNORD25 /// SNORD26 /// SNORD27 /// SNORD28 /// SNORD29 /// SNORD31 / Fold change (Aza/veh), C12orf56 (ProbeSet 11735607_a_at) / Fold change (ACY-1035/veh), C12orf56 (ProbeSet 11735607_a_at) / Fold change (Aza/veh), FGFR1OP (ProbeSet 11751329_s_at) / Fold change (ACY-1035/veh), FGFR1OP (ProbeSet 11751329_s_at) / Fold change (Aza/veh), VPS36 (ProbeSet 11739960_a_at) / Fold change (ACY-1035/veh), VPS36 (ProbeSet 11739960_a_at) / RFU SYPL1 (11715823_x_at) / Fold change /veh SYPL1 (11715823_x_at) / RFU IGFBP7 (11715501_s_at) / Fold change /veh IGFBP7 (11715501_s_at) / RFU REEP3 (11722064_at) / Fold change /veh REEP3 (11722064_at) / RFU IGLL1 (11728026_x_at) / Fold change /veh IGLL1 (11728026_x_at): dose or concentration left out as unconfirmed", "settings": "ProbeSet 11720154_at; LIST B", "data": [{"smiles": "Nc1ccc(-c2cccs2)cc1NC(=O)c1ccc2c(c1)cc(C1CC1)n2CCN1CCOCC1", "note": "[ACY-1035]", "values": [{"measurement": "Fold change vs veh, NRIP1", "value": 0.88}]}]}
